Test results: ChEMBL document CHEMBL1201862, “PubChem BioAssay data set” (2004)
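These data come from cells grown in 96-well plates and exposed to compound for 48 hours at five concentrations. Here, GI50 denotes the concentration required for 50% inhibition of growth.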 Calls of active or inactive are those of the source. No stated cut-off is given here; in the data, active = GI50 up to about 1.1 µM and inactive = higher.

Assays:
Test in all cases: NCI tumour cell line growth inhibition, 48 h
786-0 = test system: 786-0
CCRF-CEM = test system: CCRF-CEM
HCC 2998 = test system: HCC 2998
HL-60 = test system: HL-60
HOP-62 = test system: HOP-62
K562 = test system: K562
NCI-H23 = test system: NCI-H23
OVCAR-4 = test system: OVCAR-4
OVCAR-5 = test system: OVCAR-5
RPMI-8226 = test system: RPMI-8226
SF-539 = test system: SF-539
SK-MEL-28 = test system: SK-MEL-28
SK-MEL-2 = test system: SK-MEL-2
SN12C = test system: SN12C
SNB-75 = test system: SNB-75
HT-29 = test system: HT-29
SR = test system: SR

Measured: GI50

NN=C1/C(=C\c2ccccc2)CCC/C1=C/c1ccccc1
inactive: 786-0 39.5 µM | CCRF-CEM 20.1 µM | HCC 2998 35.6 µM | HL-60 20.3 µM | HOP-62 32.8 µM | K562 20.4 µM | NCI-H23 36.9 µM | OVCAR-4 49.4 µM | OVCAR-5 94 µM | RPMI-8226 16.4 µM | SF-539 24.4 µM | SK-MEL-28 39.5 µM | SK-MEL-2 36.6 µM | SN12C 27 µM | SNB-75 17.7 µM

C=CCNC(=O)/C=C\C(=O)O
inactive: 786-0 > 100 µM | CCRF-CEM > 100 µM | HCC 2998 > 100 µM | HL-60 > 100 µM | HOP-62 > 100 µM | HT-29 > 100 µM | K562 > 100 µM | NCI-H23 > 100 µM | OVCAR-4 > 100 µM | OVCAR-5 > 100 µM | SF-539 > 100 µM | SK-MEL-28 > 100 µM | SK-MEL-2 > 100 µM | SN12C > 100 µM | SNB-75 > 100 µM | SR > 100 µM

O=C(O)Cc1cc(=O)oc2cc(O)c(Cl)cc12
inactive: 786-0 > 100 µM | CCRF-CEM > 100 µM | HCC 2998 > 100 µM | HL-60 > 100 µM | HOP-62 > 100 µM | HT-29 > 100 µM | K562 > 100 µM | NCI-H23 > 100 µM | OVCAR-4 > 100 µM | OVCAR-5 > 100 µM | RPMI-8226 > 100 µM | SF-539 > 100 µM | SK-MEL-28 > 100 µM | SK-MEL-2 > 100 µM | SN12C > 100 µM | SNB-75 28.6 µM

C[C@H]1COC2(c3ccccc3)CCC(=O)N12 (stereo partly drawn)
inactive: 786-0 > 100 µM | CCRF-CEM > 100 µM | HOP-62 > 100 µM | HT-29 > 100 µM | K562 > 100 µM | NCI-H23 > 100 µM | OVCAR-4 > 100 µM | OVCAR-5 > 100 µM | RPMI-8226 > 100 µM | SF-539 > 100 µM | SK-MEL-28 > 100 µM | SK-MEL-2 > 100 µM | SN12C > 100 µM | SNB-75 > 100 µM | SR > 100 µM

O=C(/C=C/c1c(O)ccc2ccccc12)c1ccc2ccccc2c1
inactive: 786-0 > 100 µM | CCRF-CEM > 100 µM | HCC 2998 > 100 µM | HL-60 > 100 µM | HOP-62 > 100 µM | HT-29 > 100 µM | K562 > 100 µM | NCI-H23 > 100 µM | OVCAR-4 > 100 µM | OVCAR-5 > 100 µM | RPMI-8226 > 100 µM | SF-539 > 100 µM | SK-MEL-28 > 100 µM | SK-MEL-2 > 100 µM | SN12C > 100 µM | SNB-75 > 100 µM

CC(=O)NC(CCCNC(=O)OCc1ccccc1)C(=O)O (stereo not drawn)
inactive: 786-0 > 100 µM | CCRF-CEM > 100 µM | HCC 2998 > 100 µM | HOP-62 > 100 µM | HT-29 > 100 µM | K562 > 100 µM | NCI-H23 > 100 µM | OVCAR-4 36.1 µM | OVCAR-5 > 100 µM | RPMI-8226 > 100 µM | SF-539 > 100 µM | SK-MEL-28 > 100 µM | SK-MEL-2 > 100 µM | SN12C > 100 µM | SNB-75 68.1 µM

CC(=O)Nc1ccccc1-c1nc2ccccc2nc1C
inactive: 786-0 > 100 µM | CCRF-CEM > 100 µM | HL-60 > 100 µM | HOP-62 > 100 µM | HT-29 > 100 µM | K562 > 100 µM | NCI-H23 > 100 µM | OVCAR-4 > 100 µM | OVCAR-5 > 100 µM | RPMI-8226 > 100 µM | SF-539 > 100 µM | SK-MEL-28 > 100 µM | SK-MEL-2 > 100 µM | SN12C > 100 µM | SNB-75 81.5 µM | SR > 100 µM

COCOc1ccc(Cn2c(=O)n(C)c(=O)c3c2ncn3C)cc1[N+](=O)[O-]
inactive: 786-0 > 100 µM | CCRF-CEM > 100 µM | HCC 2998 > 100 µM | HL-60 > 100 µM | HOP-62 > 10 µM | HT-29 10.2 µM | K562 > 100 µM | NCI-H23 80.2 µM | RPMI-8226 66.2 µM | SF-539 > 100 µM | SK-MEL-28 > 100 µM | SN12C > 100 µM | SNB-75 59.6 µM | SR > 100 µM

COc1ccc(/C=C2\CCCC(C(NO)c3ccc(OC)cc3)C2=NO)cc1 (stereo not drawn)
inactive: 786-0 29.2 µM | CCRF-CEM 33.9 µM | HCC 2998 61.2 µM | HL-60 16.2 µM | HOP-62 98.9 µM | HT-29 72.1 µM | K562 35.4 µM | NCI-H23 38.6 µM | OVCAR-4 29.5 µM | RPMI-8226 28.8 µM | SF-539 27.5 µM | SK-MEL-28 26.9 µM | SK-MEL-2 85.1 µM | SN12C 39.3 µM | SNB-75 26.3 µM

CC(=O)/C=C\C1CC2C=CC1C2 (stereo not drawn)
inactive: 786-0 43.1 µM | CCRF-CEM 16.3 µM | HCC 2998 24.3 µM | HL-60 26.8 µM | HOP-62 92.3 µM | K562 21.6 µM | NCI-H23 36.1 µM | OVCAR-4 27.1 µM | OVCAR-5 53.3 µM | RPMI-8226 23.9 µM | SF-539 37.4 µM | SK-MEL-2 49.2 µM | SN12C 26.7 µM | SNB-75 21.6 µM

Cc1ccc2nc3cc(C)c(=O)cc-3sc2c1
inactive: 786-0 > 100 µM | CCRF-CEM 8.95 µM | HCC 2998 > 100 µM | HL-60 3.11 µM | HOP-62 > 100 µM | HT-29 > 100 µM | K562 13.6 µM | NCI-H23 57.7 µM | OVCAR-4 37.8 µM | OVCAR-5 > 100 µM | SF-539 > 100 µM | SK-MEL-28 > 100 µM | SK-MEL-2 > 100 µM | SN12C > 100 µM | SNB-75 18.7 µM | SR 17 µM

O=C(CSc1nnc(-c2ccc(/N=C\c3ccc(Cl)cc3)cc2)o1)Nc1ccccc1
inactive: 786-0 21.5 µM | CCRF-CEM 32.9 µM | HL-60 34.4 µM | HOP-62 > 100 µM | HT-29 44.2 µM | K562 30.1 µM | NCI-H23 50.2 µM | OVCAR-4 > 100 µM | RPMI-8226 31.6 µM | SK-MEL-28 43.6 µM | SK-MEL-2 > 100 µM | SN12C > 100 µM | SNB-75 94.8 µM | SR 33.1 µM

CCc1nc2ccccc2c(=O)n1/N=C(\N=N\c1ccc(Cl)cc1)c1ccccc1
inactive: 786-0 23.1 µM | CCRF-CEM 65.8 µM | HCC 2998 29.2 µM | HL-60 42.4 µM | HOP-62 24.3 µM | HT-29 15.7 µM | K562 > 10 µM | NCI-H23 > 100 µM | OVCAR-4 23.5 µM | OVCAR-5 > 100 µM | RPMI-8226 30.7 µM | SF-539 22.5 µM | SK-MEL-28 32 µM | SK-MEL-2 32.7 µM | SN12C 36 µM | SNB-75 14.6 µM
